How the values were obtained:
Type in all cases: functional
Brassica napus [1] = test: Herbicidal activity against rape assessed as inhibition of root growth at 100 mg/L relative to control
Brassica napus [2] = test: Herbicidal activity against rape assessed as inhibition of root growth at 10 mg/L relative to control
Echinochloa crus-galli [3] = test: Herbicidal activity against barnyard grass assessed as inhibition of root growth at 100 mg/L relative to control
Echinochloa crus-galli [4] = test: Herbicidal activity against barnyard grass assessed as inhibition of root growth at 10 mg/L relative to control
Brassica napus [5] = test: Herbicidal activity against rape assessed as inhibition of stalk growth at 100 mg/L relative to control
Brassica napus [6] = test: Herbicidal activity against rape assessed as inhibition of stalk growth at 10 mg/L relative to control
Echinochloa crus-galli [7] = test: Herbicidal activity against barnyard grass assessed as inhibition of stalk growth at 100 mg/L relative to control
Echinochloa crus-galli [8] = test: Herbicidal activity against barnyard grass assessed as inhibition of stalk growth at 10 mg/L relative to control

For `CCCOC(=O)C(C)Oc1ccc(Oc2nc3c(c(SC)nn3-c3ccccc3)c(=O)n2C(=O)Nc2ccccc2Cl)cc1` (stereo not drawn), the inhibition at 100 µg/mL (Brassica napus [1]) was 36.7%, the inhibition at 10 µg/mL (Brassica napus [2]) was 5.5% and the inhibition at 100 µg/mL (Echinochloa crus-galli [3]) was 64.3%. For the same compound, the inhibition at 10 µg/mL (Echinochloa crus-galli [4]) was 53.4%, the inhibition at 100 µg/mL (Brassica napus [5]) was 8.5% and the inhibition at 10 µg/mL (Brassica napus [6]) was 10.6%. The inhibition at 100 µg/mL (Echinochloa crus-galli [7]) was 25.8% and the inhibition at 10 µg/mL (Echinochloa crus-galli [8]) was 25.8%.

For `COC(=O)C(C)Oc1ccc(Oc2nc3c(c(SC)nn3-c3ccccc3)c(=O)n2C(=O)Nc2ccccc2)cc1` (stereo not drawn), the inhibition at 100 µg/mL (Brassica napus [1]) was 96.1%, the inhibition at 10 µg/mL (Brassica napus [2]) was 40.2% and the inhibition at 100 µg/mL (Echinochloa crus-galli [3]) was 93.5%. It also gave an inhibition at 10 µg/mL (Echinochloa crus-galli [4]) of 63%, an inhibition at 100 µg/mL (Brassica napus [5]) of 76.9% and an inhibition at 10 µg/mL (Brassica napus [6]) of 20.5%. For the same compound, the inhibition at 100 µg/mL (Echinochloa crus-galli [7]) was 68.9% and the inhibition at 10 µg/mL (Echinochloa crus-galli [8]) was 44.8%.

`CCOC(=O)C(C)Oc1ccc(Oc2nc3c(c(SC)nn3-c3ccccc3)c(=O)n2C(=O)Nc2ccccc2)cc1` (stereo not drawn) was tested, and the inhibition at 100 µg/mL (Brassica napus [1]) was 86.1%, the inhibition at 10 µg/mL (Brassica napus [2]) was 57.4% and the inhibition at 100 µg/mL (Echinochloa crus-galli [3]) was 88.5%. It also gave an inhibition at 10 µg/mL (Echinochloa crus-galli [4]) of 57.7%, an inhibition at 100 µg/mL (Brassica napus [5]) of 46.2% and an inhibition at 10 µg/mL (Brassica napus [6]) of 12.9%. The inhibition at 100 µg/mL (Echinochloa crus-galli [7]) was 32.3% and the inhibition at 10 µg/mL (Echinochloa crus-galli [8]) was 12.9%.

Work on `COC(=O)C(C)Oc1ccc(Oc2nc3c(c(S(C)(=O)=O)nn3-c3ccccc3)c(=O)n2C(=O)Nc2ccccc2)cc1` (stereo not drawn) yielded an inhibition at 100 µg/mL (Brassica napus [1]) of 80.4%, an inhibition at 10 µg/mL (Brassica napus [2]) of 25% and an inhibition at 100 µg/mL (Echinochloa crus-galli [3]) of 93.3%. For the same compound, the inhibition at 10 µg/mL (Echinochloa crus-galli [4]) was 66.7%, the inhibition at 100 µg/mL (Brassica napus [5]) was 48.9% and the inhibition at 10 µg/mL (Brassica napus [6]) was 13.3%. The inhibition at 100 µg/mL (Echinochloa crus-galli [7]) was 31.6% and the inhibition at 10 µg/mL (Echinochloa crus-galli [8]) was 5.3%.

For `COC(=O)C(C)Oc1ccc(Oc2nc3c(c(S(C)(=O)=O)nn3-c3ccccc3)c(=O)n2C(=O)Nc2ccccc2F)cc1` (stereo not drawn), the inhibition at 100 µg/mL (Brassica napus [1]) was 28%, the inhibition at 10 µg/mL (Brassica napus [2]) was 16.3% and the inhibition at 100 µg/mL (Echinochloa crus-galli [3]) was 53.3%. The inhibition at 10 µg/mL (Echinochloa crus-galli [4]) was 33.3%, the inhibition at 100 µg/mL (Brassica napus [5]) was 0% and the inhibition at 10 µg/mL (Brassica napus [6]) was 0%. For the same compound, the inhibition at 100 µg/mL (Echinochloa crus-galli [7]) was -21% and the inhibition at 10 µg/mL (Echinochloa crus-galli [8]) was 10.5%.

`CCOC(=O)C(C)Oc1ccc(Oc2nc3c(c(S(C)(=O)=O)nn3-c3ccccc3)c(=O)n2C(=O)Nc2cccc(C)c2)cc1` (stereo not drawn) gave an inhibition at 100 µg/mL (Brassica napus [1]) of 98%, an inhibition at 10 µg/mL (Brassica napus [2]) of 51% and an inhibition at 100 µg/mL (Echinochloa crus-galli [3]) of 95.6%. For the same compound, the inhibition at 10 µg/mL (Echinochloa crus-galli [4]) was 54.3%, the inhibition at 100 µg/mL (Brassica napus [5]) was 74.4% and the inhibition at 10 µg/mL (Brassica napus [6]) was 17.9%. For the same compound, the inhibition at 100 µg/mL (Echinochloa crus-galli [7]) was 51.7% and the inhibition at 10 µg/mL (Echinochloa crus-galli [8]) was 3.4%.

For `CCOC(=O)C(C)Oc1ccc(Oc2nc3c(c(SC)nn3-c3ccccc3)c(=O)n2C(=O)Nc2cccc(C)c2)cc1` (stereo not drawn), the inhibition at 100 µg/mL (Brassica napus [1]) was 97%, the inhibition at 10 µg/mL (Brassica napus [2]) was 46.5% and the inhibition at 100 µg/mL (Echinochloa crus-galli [3]) was 88.5%. It also gave an inhibition at 10 µg/mL (Echinochloa crus-galli [4]) of 59.6%, an inhibition at 100 µg/mL (Brassica napus [5]) of 63.5% and an inhibition at 10 µg/mL (Brassica napus [6]) of 9.6%. For the same compound, the inhibition at 100 µg/mL (Echinochloa crus-galli [7]) was 0% and the inhibition at 10 µg/mL (Echinochloa crus-galli [8]) was -12.9%.

With `CCOC(=O)C(C)Oc1ccc(Oc2nc3c(c(SCc4ccccc4)nn3-c3ccccc3)c(=O)n2C(=O)Nc2cccc(C)c2)cc1` (stereo not drawn) the inhibition at 100 µg/mL (Brassica napus [1]) was 32.2%, the inhibition at 10 µg/mL (Brassica napus [2]) was 24.4% and the inhibition at 100 µg/mL (Echinochloa crus-galli [3]) was 61.9%. For the same compound, the inhibition at 10 µg/mL (Echinochloa crus-galli [4]) was 33.3%, the inhibition at 100 µg/mL (Brassica napus [5]) was 10.6% and the inhibition at 10 µg/mL (Brassica napus [6]) was -2.1%. It also gave an inhibition at 100 µg/mL (Echinochloa crus-galli [7]) of -6.4% and an inhibition at 10 µg/mL (Echinochloa crus-galli [8]) of -6.4%.

With `CCOC(=O)COc1ccc(Oc2nc3c(c(SCc4ccccc4)nn3-c3ccccc3)c(=O)n2C(=O)Nc2cccc(C)c2)cc1` the inhibition at 100 µg/mL (Brassica napus [1]) was 64.1%, the inhibition at 10 µg/mL (Brassica napus [2]) was 20.6% and the inhibition at 100 µg/mL (Echinochloa crus-galli [3]) was 75.5%. For the same compound, the inhibition at 10 µg/mL (Echinochloa crus-galli [4]) was 66.7%, the inhibition at 100 µg/mL (Brassica napus [5]) was 24% and the inhibition at 10 µg/mL (Brassica napus [6]) was 20%. The inhibition at 100 µg/mL (Echinochloa crus-galli [7]) was -10.5% and the inhibition at 10 µg/mL (Echinochloa crus-galli [8]) was 5.3%.

Work on `CCCOC(=O)C(C)Oc1ccc(Oc2nc3c(c(S(C)(=O)=O)nn3-c3ccccc3)c(=O)n2C(=O)Nc2ccccc2Cl)cc1` (stereo not drawn) yielded an inhibition at 100 µg/mL (Brassica napus [1]) of 67.4%, an inhibition at 10 µg/mL (Brassica napus [2]) of 17.4% and an inhibition at 100 µg/mL (Echinochloa crus-galli [3]) of 80%. It also gave an inhibition at 10 µg/mL (Echinochloa crus-galli [4]) of 50%, an inhibition at 100 µg/mL (Brassica napus [5]) of 42.2% and an inhibition at 10 µg/mL (Brassica napus [6]) of -17.8%. It also gave an inhibition at 100 µg/mL (Echinochloa crus-galli [7]) of 23.3% and an inhibition at 10 µg/mL (Echinochloa crus-galli [8]) of 16.7%.

`CCOC(=O)C(C)Oc1ccc(Oc2nc3c(c(S(=O)(=O)Cc4ccccc4)nn3-c3ccccc3)c(=O)n2C(=O)Nc2cccc(C)c2)cc1` (stereo not drawn) gave an inhibition at 100 µg/mL (Brassica napus [1]) of 34.8%, an inhibition at 10 µg/mL (Brassica napus [2]) of 9.8% and an inhibition at 100 µg/mL (Echinochloa crus-galli [3]) of 72.5%. For the same compound, the inhibition at 10 µg/mL (Echinochloa crus-galli [4]) was 50%, the inhibition at 100 µg/mL (Brassica napus [5]) was 6.7% and the inhibition at 10 µg/mL (Brassica napus [6]) was 6.7%. For the same compound, the inhibition at 100 µg/mL (Echinochloa crus-galli [7]) was 16.7% and the inhibition at 10 µg/mL (Echinochloa crus-galli [8]) was 13.3%.
